Laboratory results published in patent publication US9163044B2, “Carbon monoxide releasing molecules and uses thereof” (Alfama, Inc., priority 2011, dated 2015).
“Also recorded” adds a separate entry of the source.

Columns and labels:
[1] = CO release kinetics in the presence of rat liver microsomes, K-phosphate buffer (pH 7.4); format: in vitro ADME; conditions: for effect of liver microsomes on CO release / decay (in words): compared with incubation without microsomes; for CO eq. released in 1 h, Microsomes K-phosphate buffer (pH 7.4): with microsomes, 10 μM, 37° C., dark
Experimental: General Method for the CO Release in the Presence of Liver Microsomes
The CO release kinetics of Compounds 1b, 2b, 3b, 4b, and 5b were also evaluated in the presence of rat or human liver microsomes. In a 8-mL vial, the following reagents were combined:
200 μL of 0.5 M potassium phosphate buffer, pH 7.4
50 μL of NADPH regenerating system solution A (BD, Cat. No. 451220)
10 μL of NADPH regenerating system solution B (BD, Cat. No. 451200)
2 μL of 5 mM solution of the compound in DMSO (10 μM final concentration)
The vials were closed and after mixing, the samples were warmed to 37° C. for 5 minutes before an aliquot (25 μL, 0.5 mg protein content) of rat liver microsomes (BD, Cat. No. 452511) or human liver microsomes (BD, Cat. No. 452161) was added to each vial. In parallel analogous vials with all the reagents except the microsomes were prepared. Due to the light-sensitivity of the molybdenum compounds, the reactions were performed in the dark. The samples were incubated at 37° C. and gas samples of the headspace (from 100 μL to 500 μL) of the vials were removed with a gas-tight syringe after 5, 10, 15, 30, and 60 minutes (in some cases samples were also taken at 1, 2, 3 or 4 minutes) upon microsomes addition. The gas samples were then injected into empty sealed vials (8 mL volume) and the amount of CO present in the vials was measured using GC-RCP.
The CO equivalents released at each time point from each compound were determined by the following equation: (CO released (pmol)×number of CO ligands in the molecule)/([CO] in the compound (pmol)). A 1 mL solution of a tri-carbonyl compound, at 50 μM concentration contains a total of 150,000 pmol of CO.

[2] = tested on: APAP-induced acute liver failure (ALF) model; assay: APAP-induced acute liver failure (ALF) model, sublethal (300 mg/kg APAP i.p.); format: in vivo, C57Bl/6 male mice; conditions: for therapeutic activity in acetaminophen induced ALF (in words): mouse, in vivo; for % ALT increase relative to increase with APAP alone Experiment 1 / % ALT increase relative to increase with APAP alone Experiment 2 / Measured ALT values (mean ± S.D.) Experiment 1 / Measured ALT values (mean ± S.D.) Experiment 2: alone or plus NAC (300 mg/kg), at 1 h and 3 h post APAP; for Measured ALT values (mean ± S.D.) Experiment 1 / Measured ALT values (mean ± S.D.) Experiment 2: serum 22 h
Experimental: Compound 3b was studied in a sublethal model for acetaminophen (APAP)-induced Liver Injury.
ALF was induced in C57Bl/6 male mice with a single dose of acetaminophen (300 mg/kg) by i.p. injection. […] Serum alanine aminotransferase (ALT) was measured 22 h after APAP injection (n=5 mice for each group). […] ALF was induced in C57Bl/6 male mice with a single dose of acetaminophen (300 mg/kg) by i.p. injection. […] Twenty-two hours after APAP injection serum ALT was measured (indicated in FIG. 11A), centrilobular sections of mouse livers were cut and stained with hematoxylin and eosin, and the percentage of liver necrosis was determined. The data indicates a dose-dependent reduction of ALT levels of 9% to 83% relative to APAP control, and a dose-dependent reduction of necrosis of 0% to 56% relative to APAP control.
ALF was induced in C57Bl/6 male mice with a single dose of acetaminophen (300 mg/kg) by i.p. injection. […] Alanine aminotransferase (ALT) was measured 22 h after APAP injection (n=4 or n=5 mice for each group).
ALF was induced in C57Bl/6 male mice with a single dose of acetaminophen (300 mg/kg) by i.p. injection. […] Twenty-two hours after APAP injection, serum ALT was measured (indicated in FIGS. 12A-12B), centrilobular sections of mouse livers were cut and stained with hematoxylin and eosin, and the percentage of liver necrosis was determined.
ALF was induced in C57Bl/6 male mice with a single dose of acetaminophen (300 mg/kg) by i.p. injection.
FIG. 14 depicts the effect of late treatment with Compound 3b on serum ALT in ALF model. ALF was induced in C57Bl/6 male mice with a single dose of acetaminophen (300 mg/kg) by i.p. injection. At sixteen hours after APAP injection, the animals were treated with different doses of Compound 3b (0.3, 3, 30 or 60 mg/kg). Alanine aminotransferase (ALT) was measured 22 h after APAP injection (n=4 or n=5 mice for each group).
ALF was induced in C57Bl/6 male mice with a single dose of acetaminophen (300 mg/kg) by i.p. injection. […] Experiments 1 and 2 represent two independent experiments. Alanine aminotransferase (ALT) was measured 22 h after APAP injection (n=4 or n=5 mice for each group). The ALT levels and the respective percentage of ALT increase, relative to the increase observed in mice injected with APAP alone, are presented in Table 7.
ALF was induced in C57Bl/6 male mice with a single dose of acetaminophen (300 mg/kg) by i.p. injection. […] Twenty-two hours after APAP injection, serum ALT was measured and centrilobular sections of mouse livers were cut and stained with hematoxylin and eosin.

[3] = CO release kinetics in 50 mM HEPES buffer (pH 7.4), GC-RCP; format: physicochemical; conditions: for CO equivalents released in 24 hours in the dark / CO equivalents released in 24 hours under light: 50 mM HEPES buffer
Experimental: The quantization of the released CO was performed according to Vreman et al. Anal. Biochem. (2005) 341: 280-289 using a Gas Chromatograph with a Reducing Compound Photometer detector (GC-RCP; Peak Laboratories, Mountain View, Calif.), which allows quantifying CO in gas mixtures at concentrations as low as 1-2 parts per billion (ppb).
General Method for the Determination of CO Release in HEPES Buffer
The CO release kinetics of all compounds was evaluated in 50 mM HEPES buffer (pH 7.4) in a sealed 8-mL vial. […] Since light activation can release CO from molybdenum carbonyl compounds, CO release was determined with solutions in closed, clear glass vials kept under light (on the laboratory bench under regular laboratory lighting) or in the dark (wrapped in aluminum foil and kept inside a cardboard box). Gas samples (from 10 μL up to 500 μL) of the vial headspace (7 ml volume) were removed with a gas-tight syringe at 15, 30, 60, 120, 240, 360 min, and 24 hours after start of the incubation. The gas samples were injected into sealed vials containing air (8 mL) for dilution. The entire gas volume of the vials (8 mL) was transferred with carrier gas to the GC-RCP and analyzed for CO. The GC-RCP had been calibrated with gas containing a known amount of CO. The calibration curve had been established starting with gas from a cylinder which contained synthetic air with 30 ppm CO (Linde, Cat. No. 14960013) and preparing dilutions in 8-mL vials as described above.
The CO equivalents released at each time point from each compound were determined by the following equation: (CO released (pmol)×number of CO ligands in the molecule)/([CO] in the compound (pmol)).

CC([N+]#[C][Mo-6]([C]#[O+])([C]#[O+])([C]#[O+])([C]#[N+]C(C)C(=O)O)[C]#[N+]C(C)C(=O)O)C(=O)O (stereo not drawn) [Compound 2b, tricarbonyl[tris(2-isocyanopropionic acid)]Mo(0)]
effect of liver microsomes on CO release / decay (in words) [1]: accelerated the decay
CO eq. released in 1 h, Microsomes K-phosphate buffer (pH 7.4) [1]: (0.9CO eq. in 1 h)
therapeutic activity in acetaminophen induced ALF (in words) [2]: still retains therapeutic activity although lower than that of Compound 3b
CO equivalents released in 24 hours in the dark [3]: 1.2 CO equivalents
CO equivalents released in 24 hours under light ([3]; under light): 1.5 CO equivalents
time to release 0.5 CO equivalents under light ([3]; 50 mM HEPES pH 7.4, 50 μM, under light): about 90 minutes

[C-]#[N+]C(C)(C)C(=O)O.[C-]#[N+]C(C)(C)C(=O)O.[C-]#[N+]C(C)(C)C(=O)O.[C-]#[O+].[C-]#[O+].[C-]#[O+].[Mo] [Compound 3b, tricarbonyl[tris(2-isocyano-2-methyl-propionic acid)]Mo(0)]
effect of liver microsomes on CO release / decay (in words) [1]: increased rate of CO release
initial CO release rate, presence versus absence of microsomes ([1]; ratio with/without microsomes): approximately 4 times faster
CO eq. released in 1 h, Microsomes K-phosphate buffer (pH 7.4) [1]: (1.5CO eq. in 1 h)
effect of a single dose administered 16 hours after APAP injury (in words) ([2]; 0.3, 3, 30 or 60 mg/kg at 16 h, ALT 22 h after APAP): dose-dependent therapeutic effect
therapeutic effect, 2 doses given at 1 h and 3 h after APAP (in words) ([2]; 2×60 and 2×120 mg/kg, NAC 2×300 mg/kg, evaluated 22 h post APAP): highly therapeutic; also recorded: as effective as NAC
% ALT increase relative to increase with APAP alone Experiment 1 ([2]; 3b 2 × 60 mg/kg): 57.2 ± 14.5%
% ALT increase relative to increase with APAP alone Experiment 2 ([2]; 3b 2 × 60 mg/kg): 45.0 ± 8.1%
Measured ALT values (mean ± S.D.) Experiment 1 ([2]; 3b 2 × 60 mg/kg): 5180 ± 1312 U/L
Measured ALT values (mean ± S.D.) Experiment 2 ([2]; 3b 2 × 60 mg/kg): 5500 ± 987 U/L
% ALT increase relative to increase with APAP alone Experiment 1 ([2]; 3b 2 × 120 mg/kg): 49.5 ± 7.0%
% ALT increase relative to increase with APAP alone Experiment 2 ([2]; 3b 2 × 120 mg/kg): 35.7 ± 7.6%
Measured ALT values (mean ± S.D.) Experiment 1 ([2]; 3b 2 × 120 mg/kg): 4480 ± 630 U/L
Measured ALT values (mean ± S.D.) Experiment 2 ([2]; 3b 2 × 120 mg/kg): 4360 ± 926 U/L
liver histology: necrosis (in words) ([2]; Compound 3b 2×100 or 2×300 mg/kg, NAC 2×300 mg/kg, at one and three hours after APAP, 22 h): very little if any necrosis
effect on serum ALT when given late after APAP injury (in words) ([2]; five hours and seven hours after APAP, NAC 150 mg/kg, Compound 3b 120 mg/kg): therapeutic
therapeutic activity in acetaminophen induced ALF (in words) [2]: strong therapeutic activity
CO equivalents released in 24 hours in the dark [3]: 1.3 CO equivalents
CO equivalents released in 24 hours under light ([3]; under light): 1.8 CO equivalents

tricarbonyl[tris(isocyanoacetic acid)]Mo(0) [Compound 1b]
effect of liver microsomes on CO release / decay (in words) [1]: increased rate of CO release
CO eq. released in 1 h, Microsomes K-phosphate buffer (pH 7.4) [1]: (1.1CO eq. in 1 h)
reduction of necrosis relative to APAP control (in words) ([2]; 60 mg/kg, 1 h after APAP): does not reduce necrosis
therapeutic activity in acetaminophen induced ALF (in words) [2]: lack of activity
CO equivalents released in 24 hours in the dark [3]: 1.4 CO equivalents
CO equivalents released in 24 hours under light ([3]; under light): 1.6 CO equivalents
